Measurements from US12275731B2, “Azaindole inhibitors of wild-type and mutant forms of LRRK2” (DANA-FARBER CANCER INSTITUTE, INC., priority 2018, dated 2025).

How the values were obtained:
Assay in all cases: KinomeScan profiling
Type in all cases: binding
GCN2(Kin.Dom.2, S808G) = molecular target: T1, GCN2(Kin.Dom.2, S808G) (Homo sapiens, UniProt Q9P2K8, S808G); settings: read-out: % control
T1 construct: GCN2(Kin.Dom.2, S808G)
T1 sequence (Q9P2K8 590-1001 S808G limits assumed): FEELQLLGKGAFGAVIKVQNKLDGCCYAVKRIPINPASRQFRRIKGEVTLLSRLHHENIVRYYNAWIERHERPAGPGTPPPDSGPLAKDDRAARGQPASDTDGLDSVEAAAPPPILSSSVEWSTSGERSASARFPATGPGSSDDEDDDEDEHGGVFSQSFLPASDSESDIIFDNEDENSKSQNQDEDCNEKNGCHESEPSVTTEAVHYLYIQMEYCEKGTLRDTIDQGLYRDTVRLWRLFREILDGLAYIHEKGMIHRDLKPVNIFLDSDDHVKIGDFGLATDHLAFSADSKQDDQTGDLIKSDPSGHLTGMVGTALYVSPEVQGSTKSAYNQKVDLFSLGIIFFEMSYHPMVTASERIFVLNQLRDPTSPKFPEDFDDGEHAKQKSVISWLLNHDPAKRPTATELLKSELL
Description: (§1) The kinase selectivity of inventive compounds 77, 96 and 101 was evaluated by KinomeScan®. KinomeScan® analysis was performed against a near comprehensive panel of 468 kinases. The control percentage (% control) for inventive compounds at 1 μM in DMSO was determined by Equation 1: % control=(inventive compound−positive control)/(negative control−positive control)×100%, Equation 1
(§2) wherein the positive control is a compound with a % control value of 0% relative light units (RLU), and the negative control (i.e., DMSO) has % control value of 100% RLU. The enzyme selectivity in the present invention is defined as follows: inventive compounds are considered active for an enzyme when the observed % control is less than 35% (<35%).

PRKG2 = molecular target: T2, PRKG2 (Homo sapiens, UniProt Q13237); settings: PRKG2, 1 μM; read-out: % control
T2 sequence (Q13237 1-762): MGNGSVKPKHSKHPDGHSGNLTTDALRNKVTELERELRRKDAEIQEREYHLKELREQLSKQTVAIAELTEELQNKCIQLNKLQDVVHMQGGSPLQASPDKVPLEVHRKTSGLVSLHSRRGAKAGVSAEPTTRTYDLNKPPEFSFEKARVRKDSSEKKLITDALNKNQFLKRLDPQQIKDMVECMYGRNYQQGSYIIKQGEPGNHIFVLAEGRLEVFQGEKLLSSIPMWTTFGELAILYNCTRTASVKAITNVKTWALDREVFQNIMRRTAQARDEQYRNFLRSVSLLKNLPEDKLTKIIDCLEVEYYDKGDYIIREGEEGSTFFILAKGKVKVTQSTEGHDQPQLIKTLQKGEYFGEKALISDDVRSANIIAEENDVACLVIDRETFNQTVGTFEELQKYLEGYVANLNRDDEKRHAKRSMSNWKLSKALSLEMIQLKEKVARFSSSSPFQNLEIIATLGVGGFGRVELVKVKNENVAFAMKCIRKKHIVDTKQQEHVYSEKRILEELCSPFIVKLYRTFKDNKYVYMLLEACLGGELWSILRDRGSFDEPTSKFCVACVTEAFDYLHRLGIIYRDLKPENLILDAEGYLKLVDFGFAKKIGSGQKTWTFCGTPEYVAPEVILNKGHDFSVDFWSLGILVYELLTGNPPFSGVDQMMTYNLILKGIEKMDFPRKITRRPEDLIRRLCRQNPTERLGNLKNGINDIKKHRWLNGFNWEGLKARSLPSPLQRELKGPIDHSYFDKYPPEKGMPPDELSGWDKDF
Description: as §1, §2

MAP4K3 = molecular target: T3, MAP4K3 (Homo sapiens, UniProt Q8IVH8); settings: MAP4K3, 1 μM; read-out: % control
T3 sequence (Q8IVH8 1-894): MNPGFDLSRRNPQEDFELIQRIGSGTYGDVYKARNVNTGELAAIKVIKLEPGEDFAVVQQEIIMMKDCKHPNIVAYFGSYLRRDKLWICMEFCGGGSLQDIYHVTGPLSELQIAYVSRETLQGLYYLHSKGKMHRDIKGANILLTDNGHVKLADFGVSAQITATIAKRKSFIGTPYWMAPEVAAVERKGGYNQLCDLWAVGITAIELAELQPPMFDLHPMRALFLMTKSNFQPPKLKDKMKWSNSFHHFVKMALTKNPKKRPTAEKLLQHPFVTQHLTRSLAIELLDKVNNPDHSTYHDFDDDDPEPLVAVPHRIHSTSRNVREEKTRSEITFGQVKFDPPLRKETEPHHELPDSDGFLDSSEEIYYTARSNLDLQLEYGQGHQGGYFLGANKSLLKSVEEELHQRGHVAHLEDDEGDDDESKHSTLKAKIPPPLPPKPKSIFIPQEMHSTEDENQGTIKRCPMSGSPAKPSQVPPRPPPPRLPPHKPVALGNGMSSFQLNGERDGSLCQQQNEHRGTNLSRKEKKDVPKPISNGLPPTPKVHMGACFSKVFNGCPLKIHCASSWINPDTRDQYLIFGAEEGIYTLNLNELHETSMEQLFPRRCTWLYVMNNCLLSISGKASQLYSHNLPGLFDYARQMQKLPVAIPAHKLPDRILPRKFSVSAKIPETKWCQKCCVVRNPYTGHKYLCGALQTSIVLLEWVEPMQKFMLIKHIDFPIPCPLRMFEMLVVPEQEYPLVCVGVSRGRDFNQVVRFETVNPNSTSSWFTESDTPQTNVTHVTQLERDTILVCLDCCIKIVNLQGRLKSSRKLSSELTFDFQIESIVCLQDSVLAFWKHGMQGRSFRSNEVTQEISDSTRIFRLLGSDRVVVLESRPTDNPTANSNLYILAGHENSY
Description: as §1, §2

FAK = FAK (Homo sapiens, UniProt Q05397); settings: read-out: % control
Description: as §1, §2

DAPK1 = DAPK1 (Homo sapiens, UniProt P53355); settings: DAPK1, 1 μM; read-out: % control
Description: as §1, §2

Chain of DAPK1 (P53355 whole entry): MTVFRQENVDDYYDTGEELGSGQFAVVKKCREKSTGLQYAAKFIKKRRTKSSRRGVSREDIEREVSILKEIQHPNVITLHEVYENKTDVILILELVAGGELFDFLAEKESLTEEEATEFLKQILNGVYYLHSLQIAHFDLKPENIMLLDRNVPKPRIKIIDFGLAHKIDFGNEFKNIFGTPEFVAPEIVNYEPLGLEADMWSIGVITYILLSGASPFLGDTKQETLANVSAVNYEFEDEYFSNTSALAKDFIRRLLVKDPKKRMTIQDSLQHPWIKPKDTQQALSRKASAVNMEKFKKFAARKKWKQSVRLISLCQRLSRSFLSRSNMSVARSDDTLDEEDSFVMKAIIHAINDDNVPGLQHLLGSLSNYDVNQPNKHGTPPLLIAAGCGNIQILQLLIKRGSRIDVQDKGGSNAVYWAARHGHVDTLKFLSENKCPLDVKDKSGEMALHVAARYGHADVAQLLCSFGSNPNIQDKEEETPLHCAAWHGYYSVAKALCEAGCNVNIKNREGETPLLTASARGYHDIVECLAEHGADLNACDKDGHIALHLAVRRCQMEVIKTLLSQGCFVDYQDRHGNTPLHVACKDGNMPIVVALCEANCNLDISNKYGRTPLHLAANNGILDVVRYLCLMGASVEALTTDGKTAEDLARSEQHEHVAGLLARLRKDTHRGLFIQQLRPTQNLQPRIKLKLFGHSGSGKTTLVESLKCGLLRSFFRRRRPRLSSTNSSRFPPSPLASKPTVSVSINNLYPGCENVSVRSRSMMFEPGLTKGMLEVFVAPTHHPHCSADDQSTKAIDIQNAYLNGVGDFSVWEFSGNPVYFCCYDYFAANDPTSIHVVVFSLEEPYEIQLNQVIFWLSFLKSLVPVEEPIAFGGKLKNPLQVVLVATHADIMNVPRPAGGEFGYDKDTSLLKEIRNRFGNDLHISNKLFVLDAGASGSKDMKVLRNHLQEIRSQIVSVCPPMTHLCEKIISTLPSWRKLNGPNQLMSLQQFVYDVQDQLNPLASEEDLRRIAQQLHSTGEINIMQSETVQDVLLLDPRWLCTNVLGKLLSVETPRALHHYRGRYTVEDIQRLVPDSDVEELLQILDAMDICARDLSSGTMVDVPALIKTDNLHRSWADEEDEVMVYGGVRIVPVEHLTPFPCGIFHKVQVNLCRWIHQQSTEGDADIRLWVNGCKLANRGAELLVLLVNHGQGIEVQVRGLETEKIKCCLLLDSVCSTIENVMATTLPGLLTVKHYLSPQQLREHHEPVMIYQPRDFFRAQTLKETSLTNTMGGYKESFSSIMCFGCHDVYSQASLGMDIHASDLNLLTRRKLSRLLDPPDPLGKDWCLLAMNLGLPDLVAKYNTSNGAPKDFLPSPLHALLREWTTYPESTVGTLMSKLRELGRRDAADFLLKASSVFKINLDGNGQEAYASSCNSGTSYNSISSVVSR
Chain of FAK (Q05397 whole entry): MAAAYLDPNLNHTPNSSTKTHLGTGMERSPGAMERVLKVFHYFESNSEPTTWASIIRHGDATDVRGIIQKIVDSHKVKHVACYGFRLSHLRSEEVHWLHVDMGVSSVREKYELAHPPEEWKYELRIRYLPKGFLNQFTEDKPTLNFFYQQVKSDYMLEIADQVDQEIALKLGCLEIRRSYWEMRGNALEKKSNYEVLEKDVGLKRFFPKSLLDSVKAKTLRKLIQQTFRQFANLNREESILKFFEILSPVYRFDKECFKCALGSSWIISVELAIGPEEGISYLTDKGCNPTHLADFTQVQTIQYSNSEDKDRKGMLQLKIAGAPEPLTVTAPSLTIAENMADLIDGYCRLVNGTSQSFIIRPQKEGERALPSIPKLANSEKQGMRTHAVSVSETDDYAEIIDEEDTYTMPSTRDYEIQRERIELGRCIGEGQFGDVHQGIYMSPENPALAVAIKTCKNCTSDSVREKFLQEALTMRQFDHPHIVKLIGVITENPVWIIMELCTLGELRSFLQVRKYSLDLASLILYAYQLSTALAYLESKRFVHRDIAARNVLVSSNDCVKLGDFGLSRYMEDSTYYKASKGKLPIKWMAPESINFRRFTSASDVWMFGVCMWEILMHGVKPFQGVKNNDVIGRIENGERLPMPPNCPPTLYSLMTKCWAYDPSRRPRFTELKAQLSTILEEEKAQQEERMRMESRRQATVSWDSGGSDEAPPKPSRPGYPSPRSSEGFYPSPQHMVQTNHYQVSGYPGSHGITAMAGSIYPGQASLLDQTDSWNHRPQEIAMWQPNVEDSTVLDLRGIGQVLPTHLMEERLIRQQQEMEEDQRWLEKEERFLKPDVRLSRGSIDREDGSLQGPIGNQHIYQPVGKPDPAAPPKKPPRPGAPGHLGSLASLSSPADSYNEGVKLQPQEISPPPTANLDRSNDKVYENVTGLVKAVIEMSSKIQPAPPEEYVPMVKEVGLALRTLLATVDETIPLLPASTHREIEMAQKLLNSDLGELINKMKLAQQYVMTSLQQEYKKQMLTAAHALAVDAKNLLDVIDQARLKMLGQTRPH

CNc1c(-c2cnn([C@H]3CCN(C(C)=O)C[C@@H]3F)c2)cnc2[nH]cc(Cl)c12 [Compound 77, 1-((3S,4S)-4-(4-(3-chloro-4-(methylamino)-1H-pyrrolo[2,3-b]pyridin-5-yl)-1H-pyrazol-1-yl)-3-fluoropiperidin-1-yl)ethan-1-one]
remaining binding at 1 µM (GCN2(Kin.Dom.2, S808G)): 34%
remaining binding at 1 µM (PRKG2): 100%
remaining binding at 1 µM (MAP4K3): 94%
remaining binding at 1 µM (FAK): 90%
remaining binding at 1 µM (DAPK1): 73%

O=C(c1ccc(-c2cnc3[nH]cc(Cl)c3c2NC2CCCC2)cc1)N1CCC(N2CCOCC2)CC1 [Compound 101, (4-(3-chloro-4-(cyclopentylamino)-1H-pyrrolo[2,3-b]pyridin-5-yl)phenyl)(4-morpholinopiperidin-1-yl)methanone]
remaining binding at 1 µM (GCN2(Kin.Dom.2, S808G)): 100%
remaining binding at 1 µM (PRKG2): 100%
remaining binding at 1 µM (MAP4K3): 74%
remaining binding at 1 µM (FAK): 71%
remaining binding at 1 µM (DAPK1): 80%

CNc1c(-c2ccc(C(=O)N3CCC(N4CCOCC4)CC3)cc2)cnc2[nH]cc(Cl)c12 [Compound 96, (4-(3-chloro-4-(methylamino)-1H-pyrrolo[2,3-b]pyridin-5-yl)phenyl)(4-morpholinopiperidin-1-yl)methanone]
remaining binding at 1 µM (GCN2(Kin.Dom.2, S808G)): 54%
remaining binding at 1 µM (PRKG2): 100%
remaining binding at 1 µM (MAP4K3): 83%
remaining binding at 1 µM (FAK): 65%
remaining binding at 1 µM (DAPK1): 74%
